The assay has as its target Recombinant human HSD17B13 (Homo sapiens (Human), UniProt Q7Z5P4). Nature of the assay: HSD17B13 rapid-fire mass spectrometry assay (RF/MS assay). It is filed as biochemical. The conditions noted are these: inhibition of HSD17B13; LTB4 10 μM, NAD+ 0.5 mM, RT 3 h; IC50 ranges A-E. The procedure, abridged: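 Sf9-expressed human HSD17B13 (80 nM) with 10 μM LTB4 and 0.5 mM NAD+, incubated with compound (0–100 μM) for 3 h at RT in Tris pH 7.5/BSA/Tween-20. After formic acid quench, LTB4 conversion to 12-oxo-LTB4 measured by RapidFire MS/MS. IC50 from normalised residual activity, duplicates.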

SMILES strings stand for the structures.

As usually defined, the IC50 is the midpoint of a concentration-inhibition curve.

Recombinant human HSD17B13, sequence (Q7Z5P4 20-300): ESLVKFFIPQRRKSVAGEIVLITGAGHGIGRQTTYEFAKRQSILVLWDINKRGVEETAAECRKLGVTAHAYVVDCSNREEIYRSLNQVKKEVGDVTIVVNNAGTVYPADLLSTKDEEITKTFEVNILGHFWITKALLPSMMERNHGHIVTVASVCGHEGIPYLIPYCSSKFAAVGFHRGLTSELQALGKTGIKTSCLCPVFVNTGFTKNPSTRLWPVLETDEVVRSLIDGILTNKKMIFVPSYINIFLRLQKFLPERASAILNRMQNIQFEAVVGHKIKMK

Consider `COc1cc(C(=O)O)ccc1NS(=O)(=O)c1csc(C#Cc2ccc(C)cc2)n1` [Example 176, 3-methoxy-4-((2-(p-tolylethynyl)thiazole)-4-sulfonamido)benzoic acid], for which the concentration for half-maximal inhibition (IC50) lay in the range of 100 to 500 nM.

For `COc1ccc(C#Cc2nc(S(=O)(=O)Nc3ccc(C(=O)O)cc3OC)cs2)cc1` [Example 177], the IC50 lay in the range of 100 to 500 nM.

For `COc1cc(C(=O)O)ccc1NS(=O)(=O)c1ccc(-c2ccc(C(F)(F)F)cc2)s1` [Example 178], the IC50 fell in the range of 100 to 500 nM.

As for `COc1ccc(-c2ccc(S(=O)(=O)Nc3ccc(C(=O)O)cc3OC)s2)cc1` [Example 179], the half-inhibitory concentration (IC50) is 100 to 500 nM.

On to `COc1cc(C(=O)O)ccc1NS(=O)(=O)c1ccc(-c2ccc(O)cc2)s1` [Example 180], for which the IC50 lay within 100 to 500 nM.

For the molecule `COc1cc(C(=O)O)ccc1NS(=O)(=O)c1csc(CCc2ccccc2)n1` [Example 181], the IC50 was in the range of 1000 to 100000 nM.

Take `COc1cc(C(=O)O)ccc1NS(=O)(=O)c1csc(C#Cc2ccc(C(F)(F)F)cc2)n1` [Example 182]: the IC50 was less than 100 nM.

For `COc1cc(C(=O)O)ccc1NS(=O)(=O)c1csc(C#Cc2ccc(O)cc2)n1` [Example 183], the IC50 was in the range of 1000 to 100000 nM.

Regarding `COc1cc(C(=O)O)ccc1NS(=O)(=O)c1csc(C#Cc2ccc(F)cc2)n1` [Example 184], the IC50 is 100 to 500 nM.

In the case of `COc1cc(C(=O)O)ccc1NS(=O)(=O)c1csc(C#Cc2ccc(Cl)cc2)n1` [Example 185], the IC50 lay in the range of 500 to 1000 nM.

Turning to `COc1cc(C(=O)O)ccc1NS(=O)(=O)c1csc(C#Cc2cccc(C)c2)n1` [Example 186], the half-inhibitory concentration (IC50) was less than 100 nM.

In the case of `COc1cc(C(=O)O)ccc1NS(=O)(=O)c1csc(C#Cc2ccccc2C)n1` [Example 187], the IC50 was less than 100 nM.

Regarding `COc1cc(C(=O)O)ccc1NS(=O)(=O)c1csc(C#Cc2ccc(C(C)(C)C)cc2)n1` [Example 188], the IC50 is less than 100 nM.

Consider `COc1cc(C(=O)O)ccc1NS(=O)(=O)c1csc(C#Cc2ccc(C(C)C)cc2)n1` [Example 189], for which the half-maximal inhibitory concentration (IC50) is less than 100 nM.

Regarding `COc1cccc(C#Cc2nc(S(=O)(=O)Nc3ccc(C(=O)O)cc3OC)cs2)c1` [Example 190], the IC50 is less than 100 nM.

For `COc1cc(C(=O)O)ccc1NS(=O)(=O)c1ccc(-c2cccc(O)c2)s1` [Example 191], the IC50 is less than 100 nM.

`COc1cc(C(=O)O)ccc1NS(=O)(=O)c1ccc(-c2ccccc2O)s1` [Example 192]: the IC50 lay in the range of 1000 to 100000 nM.

With `COc1cc(C(=O)O)ccc1NS(=O)(=O)c1ccc(-c2ccccc2OC)s1` [Example 193], the IC50 lay in the range of 100 to 500 nM.

`COc1cc(C(=O)O)ccc1NS(=O)(=O)c1ccc(-c2ccccc2C)s1` [Example 194]: the IC50 lay in the range of 100 to 500 nM.

`COc1ccccc1C#Cc1nc(S(=O)(=O)Nc2ccc(C(=O)O)cc2OC)cs1` [Example 195]: the IC50 was less than 100 nM.

Regarding `COc1cc(C(=O)O)ccc1NS(=O)(=O)c1csc(C#Cc2ccccc2Cl)n1` [Example 196], the half-inhibitory concentration (IC50) was less than 100 nM.

As for `COc1cc(C(=O)O)ccc1NS(=O)(=O)c1csc(C#Cc2cccc(Cl)c2)n1` [Example 197], the 50% inhibitory concentration (IC50) is less than 100 nM.

Regarding `COc1cc(C(=O)O)ccc1NS(=O)(=O)c1ccc(-c2ccc(-c3ccccc3)cc2)s1` [Example 198], the IC50 is 500 to 1000 nM.

For the molecule `COc1cc(C(=O)O)ccc1NS(=O)(=O)c1ccc(-c2ccc(-c3ccc(C)cc3)cc2)s1` [Example 199], the IC50 was 100 to 500 nM.

For the molecule `COc1cccc(-c2ccc(S(=O)(=O)Nc3ccc(C(=O)O)cc3OC)s2)c1` [Example 200], the IC50 is less than 100 nM.

For `COc1cc(C(=O)O)ccc1NS(=O)(=O)c1ccc(-c2ccccc2F)s1` [Example 201], the IC50 is less than 100 nM.

For the molecule `COc1cc(C(=O)O)ccc1NS(=O)(=O)c1csc(C#Cc2cccc(C(F)(F)F)c2)n1` [Example 202], the IC50 was less than 100 nM.

Take `COc1cc(C(=O)O)ccc1NS(=O)(=O)c1csc(C#Cc2cccc(F)c2)n1` [Example 203]: the IC50 was less than 100 nM.

Consider `COc1cc(C(=O)O)ccc1NS(=O)(=O)c1csc(C#Cc2ccccc2F)n1` [Example 204], for which the IC50 is less than 100 nM.

As for `COc1cc(C(=O)O)ccc1NS(=O)(=O)c1ccc(-c2ccc(-c3ccc(F)cc3)cc2)s1` [Example 205], the IC50 fell in the range of 100 to 500 nM.

As for `COc1ccc(-c2ccc(-c3ccc(S(=O)(=O)Nc4ccc(C(=O)O)cc4OC)s3)cc2)cc1` [Example 206], the 50% inhibitory concentration (IC50) lay in the range of 100 to 500 nM.

For `COc1cc(C(=O)O)ccc1NS(=O)(=O)c1ccc(-c2ccc(-c3ccc(O)cc3)cc2)s1` [Example 207], the IC50 lay in the range of 500 to 1000 nM.

With `COc1cc(C(=O)O)ccc1NS(=O)(=O)c1ccc(-c2cccc(F)c2)s1` [Example 208], the IC50 is less than 100 nM.

On to `COc1cc(C(=O)O)ccc1NS(=O)(=O)c1csc(C#Cc2ccc([N+](=O)[O-])cc2)n1` [Example 209], for which the half-maximal inhibitory concentration (IC50) was 100 to 500 nM.

In the case of `COc1cc(C(=O)O)ccc1NS(=O)(=O)c1csc(C#Cc2ccc(N(C)C)cc2)n1` [Example 210], the IC50 was less than 100 nM.

Regarding `COc1cc(C(=O)O)ccc1NS(=O)(=O)c1ccc(-c2cccc(C)c2)s1` [Example 211], the IC50 was less than 100 nM.

On to `COc1cc(C(=O)O)ccc1NS(=O)(=O)c1ccc(-c2cccc(C(F)(F)F)c2)s1` [Example 212], for which the half-maximal inhibitory concentration (IC50) is less than 100 nM.

Regarding `COc1cc(C(=O)O)ccc1NS(=O)(=O)c1ccc(-c2ccccc2C(F)(F)F)s1` [Example 213], the IC50 lay in the range of 100 to 500 nM.

Take `COc1cc(C(=O)O)ccc1NS(=O)(=O)c1csc(C#CC2CC2)n1` [Example 214]: the IC50 was less than 100 nM.

For the molecule `COc1cc(C(=O)O)ccc1NS(=O)(=O)c1csc(C#Cc2cccnc2)n1` [Example 215], the concentration for half-maximal inhibition (IC50) fell in the range of 100 to 500 nM.

In the case of `COc1cc(C(=O)O)ccc1NS(=O)(=O)c1csc(C#Cc2ccncc2)n1` [Example 216], the IC50 was 100 to 500 nM.

Take `COc1cc(C(=O)O)ccc1NS(=O)(=O)c1csc(C#CC2CCCC2)n1` [Example 217]: the IC50 is less than 100 nM.

On to `COc1cc(C(=O)O)ccc1NS(=O)(=O)c1csc(C#Cc2cccs2)n1` [Example 218], for which the IC50 was less than 100 nM.

Regarding `COc1cc(C(=O)O)ccc1NS(=O)(=O)c1ccc(-c2ccc(-c3ccc(OC(F)(F)F)cc3)cc2)s1` [Example 219], the half-inhibitory concentration (IC50) fell in the range of 100 to 500 nM.

`COc1cc(C(=O)O)c(F)cc1NS(=O)(=O)c1csc(C#Cc2ccc(C)cc2)n1` [Example 220]: the IC50 was less than 100 nM.

As for `COc1ccc(C#Cc2nc(S(=O)(=O)Nc3cc(F)c(C(=O)O)cc3OC)cs2)cc1` [Example 221], the IC50 is less than 100 nM.

Consider `COc1cc(C(=O)O)c(F)cc1NS(=O)(=O)c1csc(C#Cc2ccc(F)cc2)n1` [Example 222], for which the IC50 is less than 100 nM.

In the case of `COc1cc(C(=O)O)ccc1NS(=O)(=O)c1csc(C#Cc2ccc(C#N)cc2)n1` [Example 223], the IC50 lay in the range of 1000 to 100000 nM.

For the molecule `COc1cc(C(=O)O)ccc1NS(=O)(=O)c1csc(C#Cc2ccc(C(N)=O)cc2)n1` [Example 224], the IC50 is 1000 to 100000 nM.

In the case of `COc1cc(C(=O)O)ccc1NS(=O)(=O)c1csc(C#Cc2ccccc2C(F)(F)F)n1` [Example 225], the half-maximal inhibitory concentration (IC50) is less than 100 nM.

Take `COc1cc(C(=O)O)ccc1NS(=O)(=O)c1csc(C#Cc2ccc(OC(F)(F)F)cc2)n1` [Example 226]: the half-inhibitory concentration (IC50) lay within 100 to 500 nM.

As to `COc1cc(C(=O)O)c(F)cc1NS(=O)(=O)c1csc(C#Cc2ccc(C(F)(F)F)cc2)n1` [Example 227], the concentration for half-maximal inhibition (IC50) was less than 100 nM.

For `COc1cc(C(=O)O)c(F)cc1NS(=O)(=O)c1csc(C#Cc2ccc(Cl)cc2)n1` [Example 228], the half-maximal inhibitory concentration (IC50) is less than 100 nM.

`COc1cc(C(=O)O)c(F)cc1NS(=O)(=O)c1csc(C#Cc2ccc(O)cc2)n1` [Example 229]: the IC50 is less than 100 nM.

Turning to `COc1cc(C(=O)O)c(F)cc1NS(=O)(=O)c1ccc(-c2ccc(C(F)(F)F)cc2)s1` [Example 230], the IC50 is 100 to 500 nM.

In the case of `COc1cc(C(=O)O)c(F)cc1NS(=O)(=O)c1ccc(-c2ccc(F)cc2)s1` [Example 231], the IC50 is less than 100 nM.

`COc1cc(C(=O)O)c(F)cc1NS(=O)(=O)c1ccc(-c2ccc(Cl)cc2)s1` [Example 232]: the half-inhibitory concentration (IC50) was less than 100 nM.

With `COc1cc(C(=O)O)c(F)cc1NS(=O)(=O)c1ccc(-c2ccc(C)cc2)s1` [Example 233], the IC50 is 100 to 500 nM.

With `COc1cc(C(=O)O)c(F)cc1NS(=O)(=O)c1csc(C#Cc2cccc(Cl)c2)n1` [Example 234], the IC50 was in the range of 100 to 500 nM.

With `COc1cc(C(=O)O)c(F)cc1NS(=O)(=O)c1csc(C#Cc2ccccc2Cl)n1` [Example 235], the half-maximal inhibitory concentration (IC50) is less than 100 nM.

On to `COc1cc(C(=O)O)c(F)cc1NS(=O)(=O)c1csc(C#Cc2cccc(C)c2)n1` [Example 236], for which the IC50 is less than 100 nM.

Regarding `COc1cc(C(=O)O)c(F)cc1NS(=O)(=O)c1csc(C#Cc2ccccc2C)n1` [Example 237], the IC50 was in the range of 100 to 500 nM.

With `COc1cc(C(=O)O)ccc1NS(=O)(=O)c1csc(C#Cc2ccccc2OC(F)(F)F)n1` [Example 238], the IC50 was less than 100 nM.

With `COc1cc(C(=O)O)ccc1NS(=O)(=O)c1csc(C#Cc2cccc(OC(F)(F)F)c2)n1` [Example 239], the half-maximal inhibitory concentration (IC50) is less than 100 nM.

For the molecule `COc1cc(C(=O)O)c(F)cc1NS(=O)(=O)c1csc(C#Cc2ccc(C(C)(C)C)cc2)n1` [Example 240], the half-inhibitory concentration (IC50) was less than 100 nM.

For `COc1cc(C(=O)O)c(F)cc1NS(=O)(=O)c1csc(C#Cc2ccc(C(C)C)cc2)n1` [Example 241], the 50% inhibitory concentration (IC50) was less than 100 nM.

`COc1cccc(C#Cc2nc(S(=O)(=O)Nc3cc(F)c(C(=O)O)cc3OC)cs2)c1` [Example 242]: the IC50 was less than 100 nM.

For the molecule `COc1ccccc1C#Cc1nc(S(=O)(=O)Nc2cc(F)c(C(=O)O)cc2OC)cs1` [Example 243], the IC50 was less than 100 nM.

As to `COc1cccc(C#Cc2nc(S(=O)(=O)Nc3ccc(C(=O)O)cc3OC)cs2)n1` [Example 244], the half-maximal inhibitory concentration (IC50) lay within 500 to 1000 nM.

In the case of `COc1ccnc(C#Cc2nc(S(=O)(=O)Nc3ccc(C(=O)O)cc3OC)cs2)c1` [Example 245], the IC50 was in the range of 1000 to 100000 nM.

Values taken from US12384753B2, “17-beta-hydroxysteroid dehydrogenase type 13 inhibitors and methods of use thereof” (Enanta Pharmaceuticals, Inc., priority 2021, dated 2025).
